One data set has as its system P. aeruginosa PAO1. Nature of the data set: Bacterial growth inhibition assay, P. aeruginosa PAO1. Type of data set: cell-based, Pseudomonas aeruginosa. The conditions noted are these: 3, 10, 30 μM; Mueller Hinton Broth, 37°C, OD595 every 15 min; mean of three independent experiments. On the procedure: (§1) Growth inhibition experiments were performed with P. aeruginosa PAO1 strain[37] and Escherichia coli K‐12 MG1655.[38] Cells were grown overnight in 10 ml of LB medium at 37°C with shaking. Overnight cultures were washed twice with phosphate‐buffered saline (PBS) and inoculated to an optical density at 595 nm (OD595) of 0.05 in 10 ml of Mueller Hinton Broth (Sigma‐Aldrich). Aliquots (200 μl) of inoculated medium were distributed in triplicate (technical replicates) in a 96‐Well Cellstar® suspension culture plate (Greiner Bio‐One) and incubated in a Sunrise microplate reader (Tecan Group) at 37°C with constant orbital shaking and real‐time OD595 measurements every 15 min. Three final peptide concentrations were tested: 3, 10, and 30 μM, respectively. Controls were made by adding sterilized water, in the same amount of the added peptide volumes. Three independent replicates were performed. Data were reported by plotting, at each time point, the mean OD595 values of the three replicates with error bars indicating Standard Error of Mean (SEM).

Data set [1] is described as follows: Solubility, hydrophobicity and aggregation of the peptides. In kind it is physicochemical.
The next data set relates to YeaZ homodimer. Nature of the data set: Analytical size exclusion chromatography (SEC). Type of data set: binding, Pseudomonas aeruginosa. The conditions noted are these: peptide 200 μM, 2% DMSO, YeaZ 0.5 mg/ml. On the procedure:
Briefly, the YeaZ protein was produced in E. coli M15[pREP4] strain using a pQE30‐PaYeaZ plasmid. Cells were grown in LB medium at 37°C till the OD600 reached 0.6, then the protein expression was induced by isopropyl‐β‐D‐thiogalactoside (IPTG) at a final concentration of 0.1 mM for 5 h at 30°C. After cell collection, the pellet was resuspended in a lysis buffer containing 50 mM phosphate buffer, 150 mM NaCl, and 10 mM imidazole, pH 7.4. Cells were subsequently disrupted by a French press disruptor (20 bar pressure), and one tablet of protease inhibitor (Roche), 10 mg/ml DNase I, and 5 mg/ml Ribonuclease A were added to the solution. After centrifugation at 18,000 rpm for 45 min, the supernatant was collected, filtered, and loaded onto a Ni‐NTA Superflow (GE Healthcare Life Science). […]
To evaluate the binding of PMP2 in vitro, the recombinant His‐tagged YeaZ protein from PAE PAO1 was produced in E. coli and purified with final purity and yield values adequate for the binding studies. […] The interaction with the protein was first evaluated by exploiting the intrinsic fluorescence of the tryptophan residues (ITF) contained in the protein's amino acid sequence. […]
On the technique in general: Size exclusion chromatography separates by hydrodynamic size, large species first.

Data set [2] deals with YeaZ. Put plainly: Intrinsic tryptophan fluorescence (ITF) binding assay. More on the design: species or system Pseudomonas aeruginosa. On the procedure:
Briefly, the YeaZ protein was produced in E. coli M15[pREP4] strain using a pQE30‐PaYeaZ plasmid. Cells were grown in LB medium at 37°C till the OD600 reached 0.6, then the protein expression was induced by isopropyl‐β‐D‐thiogalactoside (IPTG) at a final concentration of 0.1 mM for 5 h at 30°C. After cell collection, the pellet was resuspended in a lysis buffer containing 50 mM phosphate buffer, 150 mM NaCl, and 10 mM imidazole, pH 7.4. Cells were subsequently disrupted by a French press disruptor (20 bar pressure), and one tablet of protease inhibitor (Roche), 10 mg/ml DNase I, and 5 mg/ml Ribonuclease A were added to the solution. After centrifugation at 18,000 rpm for 45 min, the supernatant was collected, filtered, and loaded onto a Ni‐NTA Superflow (GE Healthcare Life Science). YeaZ was further purified using a Superdex 75 gel filtration column (GE Healthcare Life Science) in buffer 50 mM Hepes pH 7.4, 150 mM NaCl at a concentration of 0.5 mg/ml, in which freshly purified protein exists as a monomer in solution, and stored at −80°C.
Spectrofluorometric assays were performed on a Varian Cary Eclipse fluorescence spectrophotometer (Agilent Technologies) at 20°C. YeaZ was used at a final concentration of 0.065 mg/ml in buffer Hepes 50 mM pH 7.4, NaCl 500 mM, 10% glycerol (with 2% v/v DMSO as control), while the peptides were used at a final concentration of 200 μM. We used an excitation wavelength of 280 nm and registered the fluorescence emission spectra between 300 and 400 nm. Measures were performed in triplicates.
To evaluate the binding of PMP2 in vitro, the recombinant His‐tagged YeaZ protein from PAE PAO1 was produced in E. coli and purified with final purity and yield values adequate for the binding studies. Compound PMP2 was dissolved to 10mM with 100% DMSO and tested in in vitro assays at a final concentration of 200 μM (corresponding to a DMSO concentration of 2%). The interaction with the protein was first evaluated by exploiting the intrinsic fluorescence of the tryptophan residues (ITF) contained in the protein's amino acid sequence. […] Analytical size exclusion chromatography (SEC) was then run to evaluate the peptide's ability to disrupt or interfere with the formation of the homodimers. The YeaZ protein alone eluted at a volume corresponding mainly to its dimeric form (estimated molecular weight of 51 kDa of the main peak) and the effect of 2% v/v DMSO was irrelevant.
(§2) PMP3 was then dissolved to 1mM in MilliQ water and evaluated in vitro in ITF assays. […] To further investigate the binding with PMP3, we performed a concentration‐response curve increasing the amounts of peptide. […] We thus performed an MST assay exploiting the perturbation of thermal diffusion at 650 nm plotted against the peptide concentration. The MO.

The conditions of data set [3]: previous work; cited from earlier work. The source says:
Since the PPIs and hot spots involved in the PAE YeaZ homodimer are conserved in the YeaZ/YgjD heterodimer,[21], [25], [26] we hypothesized that PMP1 might also represent a good starting point to target the YeaZ/YgjD interface. In this work, we report our studies focused on the PPIs involved in the formation of the TC‐complex and their possible inhibition by PMP1 derivatives. The final aim was the interference of t^6A37 biosynthesis and, consequently, the achievement of bacterial growth impairment.

The test system of data set [4] is Escherichia coli K‐12 MG1655. Put plainly: Bacterial growth inhibition assay, E. coli MG1655. Type of data set: cell-based. Conditions: 3, 10, 30 μM; Mueller Hinton Broth, 37°C, OD595 every 15 min; mean of three independent experiments. On the procedure:
as §1

For data set [5] the following is noted: cited from earlier work. From the text:
P. aeruginosa (PAE) is a Gram‐negative bacterium that has been ranked by WHO as one out of three pathogens with the highest global priority for the development of novel effective antibacterials.[17] PAE is a major cause of both acute and chronic lung infections, which develop in up to 60%–70% of cystic fibrosis (CF) patients, often leading to a more rapid decline of lung function that turns into greater morbidity and mortality.[18], [19], [20] The misuse of classical antibiotics, whose mechanism of action is usually based on the interaction with a well‐defined ligand binding site, led to an ev ... || These observations supported our hypothesis that PMP1 should be able to bind to YeaZ and consequently reduce its ability to form protein complexes, thus impairing its function. […] Indeed, the PMP2 peptide derives from the PMP1 sequence RIAIGVVQGLAFAL (Arg73‐Leu86) and thus contains the four hot ...

The target in data set [6] is YeaZ protein from P. aeruginosa PAO1, recombinant His-tagged (P. aeruginosa PAO1). Nature of the data set: SEC; analytical, Superdex75 Increase 10/300 GL, Hepes 50 mM pH 7.4, NaCl 500 mM, 10% glycerol; YeaZ 0.5 mg/ml (2% DMSO as control); peptide at 200 μM.
The target of data set [7] is YeaZ. Nature of the data set: Microscale thermophoresis (MST) assay. In kind it is binding, Pseudomonas aeruginosa. The conditions noted are these: 50 nM RED‐NHS labeled YeaZ, Hepes 50 mM pH 7.4, NaCl 500 mM, 10% glycerol, 0.05% Tween20, 24°C, 650 nm, triplicates; saturation plateau not reached, precise value not calculable. Here is the method:
Microscale thermophoresis (MST) experiments were performed using a Monolith X apparatus (NanoTemper Technologies GmbH, Munich, Germany) and analyzed with the MO. Affinity Analysis software (NanoTemper Technologies GmbH). Briefly, YeaZ was labeled with the red fluorescent dye RED‐NHS 2° generation according to manufacturer instructions. MST measurements were performed in triplicates at 24°C on in Hepes 50 mM pH 7.4, NaCl 500 mM, 10% glycerol, and 0.05% Tween20, using premium‐treated glass capillaries and at a fixed concentration of 50 nM YeaZ. Results were merged and analyzed.
as §2

Data set [8] is described as follows: Circular dichroism analysis. Type of data set: physicochemical. Conditions: 20 μM, 20°C. On the procedure:
CD spectra were acquired on a JASCO J‐715 spectropolarimeter in a 1‐mm quartz cuvette, under N2, between 260 and 185 nm, at 20°C with 0.5 nm intervals, and 3 measurements were accumulated (settings: 100 mdeg sensitivity, continuous scan mode, 50 nm/min scan speed, 2 s response, bandwidth 1.0 nm). The resulting signal was converted from ellipticity (mdeg) to molar ellipticity [Q] in deg · cm^2 · dmol^−1. Peptides were solubilized in 100% MilliQ water or 1:1 water/TFE at 20 μM concentration. The helical propensity [R] was calculated using the R‐value, i.e. the ratio between molar ellipticity values at 222 and 207 nm, where R = 1 is defined as a reference for an ideal α‐helix.
(CD spectra are sensitive to the conformation of chiral molecules.)

As for AIAIGVVQGLAFAL‐GG‐KKKG [PMP2], in the data set with P. aeruginosa PAO1, the “growth inhibition of PAE PAO1” value was “no effect of growth inhibition could be observed”. Besides, the solubility result in data set [1] (any tested solvent (H2O, 100% DMSO, 10 mM NaOH)) was “poor solubility”. In addition, in data set [1] (in solution at higher concentrations, prevented evaluation of a dose–response constant), the aggregation result is “formation of aggregates in solution at higher concentrations”. Moreover, in the data set with YeaZ homodimer (Hepes 50 mM pH 7.4, NaCl 500 mM, 10% glycerol, Superdex75 Increase 10/300, YeaZ alone 51 kDa), the “estimated molecular weight of the YeaZ dimeric peak (SEC)” value is 49 kDa. The “effect on the YeaZ dimeric peak (SEC)” value in the data set on YeaZ homodimer (pH 7.4) was “slight shift of the dimeric peak towards a smaller molecular weight”. For the same substance, in the data set on YeaZ [2] (peptide 200 μM, 2% DMSO, YeaZ 0.065 mg/ml, Hepes 50 mM pH 7.4, NaCl 500 mM, 10% glycerol, 20°C, excitation 280 nm, emission 300-400 nm, triplicates), the “fluorescence emission of YeaZ in presence of peptide (ITF)” value was “decreased fluorescence emission spectrum compared to the protein alone”. Further, the “helicity outside the protein environment” value in data set [3] was “maintain helicity outside the protein environment”. In addition, the “growth inhibition of E. coli MG1655” value in data set [4] is recorded as “no effect of growth inhibition could be observed”. For the same substance, the “self‐assembly” value in data set [5] (by fine‐tuning of the environmental conditions) was “capable of self‐assembling in helical nanofibers and 2D sheets as well as forming hydrogels”.

On to “YeaZ protein from P. aeruginosa PAO1, recombinant His-tagged (from UniProt A0A0H2ZEW0 1-226) (natural protein)”, for which the stoichiometry N – broadly, the number of molecules, sites or subunits per partner or assembly – in data set [6] came out at 2.

Take “AIAIGVVQGLAFAL‐GG‐[R‐Ahx‐R]4‐Ahx‐β‐Ala [PMP3]”: in the data set with P. aeruginosa PAO1, the “growth inhibition of PAE PAO1” value is “significant concentration‐dependent decrease in the growth rates”. For the same substance, in the data set on YeaZ [2] (above a concentration threshold, at 310–340 nm, prevented concentration‐response evaluation), the “intrinsic fluorescence of the peptide” value is listed as “higher than the intrinsic fluorescence of the YeaZ protein”. Also, the “fluorescence intensity of YeaZ in presence of peptide (ITF)” value in the data set with YeaZ [2] (peptide 200 μM, from 1mM in MilliQ water, YeaZ 0.065 mg/ml, Hepes 50 mM pH 7.4, NaCl 500 mM, 10% glycerol, 20°C, excitation 280 nm, triplicates) is “reduction of the fluorescence intensity”. The “shift of emission towards shorter wavelengths (ITF), wavelength” value with YeaZ [2] (peptide 200 μM, from 1mM in MilliQ water, YeaZ 0.065 mg/ml, pH 7.4, 20°C, slight shift) is given as “around 330 nm”. The “Kd (MST)” value on YeaZ [7] is “low micromolar”. Besides, the “secondary structure by CD” value in [8] (1:1 water/TFE) is “a clear α‐helix conformation was observed”; in data set [8] (100% MilliQ water) it was “did not show any particular secondary structure”. The “helical propensity R” value in data set [8] (ratio of molar ellipticity at 222 and 207 nm (R = 1 ideal α‐helix), 1:1 water/TFE) is recorded as 0.78. In addition, in data set [4], the “growth inhibition of E. coli MG1655” value is reported as “much weaker than those observed for PAO1”.

For AIAIGVVQGLAFAL [PMP1], the hydrophobicity result in data set [5] is given as “too hydrophobic”.

The values are drawn from paper PMC11669939, “Impairing protein–protein interactions in an essential tRNA modification complex: An innovative antimicrobial strategy against Pseudomonas aeruginosa” (Journal of Peptide Science, 2024).
